From PubChem BioAssay AID330 (DTP/NCI, 2004) come the findings set out here.

In the experiment the test system is P388 leukemia ip, CD2F1 mice, survival T/C. In words: NCI In Vivo Anticancer Drug Screen. Data for tumor model P388 Leukemia (intraperitoneal) in CD2F1 (CDF1) mice. To be noted: endpoint: median survival time, higher = longer survival. Put shortly: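 Mice carrying the transplanted tumor received test compound or vehicle. Survival was recorded in each group, and the value is the treated-group measurement divided by that of the vehicle-treated control group.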

The mark [1] stands for this setting: dose: 60.0 mg/kg/injection, schedule: Q01DX005 (ip), vehicle: saline with Tween-80.
[2] abbreviates: dose: 120.0 mg/kg/injection, schedule: Q01DX005 (ip), vehicle: saline with Tween-80.
The mark [3] stands for this setting: dose: 240.0 mg/kg/injection, schedule: Q01DX005 (ip), vehicle: saline with Tween-80.
[4] abbreviates: dose: 12.5 mg/kg/injection, schedule: Q01DX009 (ip), vehicle: Klucel (hydroxypropylcellulose) (HPC).
Setting [5] is: dose: 25.0 mg/kg/injection, schedule: Q01DX009 (ip), vehicle: Klucel (hydroxypropylcellulose) (HPC).
Where [6] appears, read: dose: 50.0 mg/kg/injection, schedule: Q01DX005 (ip), vehicle: saline with Tween-80.
[7] abbreviates: dose: 100.0 mg/kg/injection, schedule: Q01DX005 (ip), vehicle: saline with Tween-80.
The mark [8] stands for this setting: dose: 200.0 mg/kg/injection, schedule: Q01DX005 (ip), vehicle: saline with Tween-80.
The mark [9] stands for this setting: dose: 50.0 mg/kg/injection, schedule: Q01DX005 (ip), vehicle: Klucel (hydroxypropylcellulose) (HPC).

Several values for one entry are separate records, joined by “and”; a condition that tells them apart may be missing. Equal entries are not always repeated. Toxic doses and inconclusive results are not listed.

Regarding `O=C1c2ccccc2C(=O)c2c(NCCNCCO)ccc(O)c21`, the T/C by setting is: (dose: 1.25 mg/kg/injection, schedule: Q01DX009 (ip), vehicle: acid diluted with saline) 118 % of control and 122 % of control; (dose: 2.5 mg/kg/injection, schedule: Q01DX009 (ip), vehicle: acid diluted with saline) 216 % of control; (dose: 3.12 mg/kg/injection, schedule: Q04DX002 (ip), vehicle: water) 110 % of control; (dose: 5.0 mg/kg/injection, schedule: Q01DX005 (ip), vehicle: saline) 258 % of control; (dose: 5.0 mg/kg/injection, schedule: Q01DX005 (iv), vehicle: saline) 119 % of control; (dose: 5.0 mg/kg/injection, schedule: Q01DX009 (ip), vehicle: acid diluted with saline) 274 % of control. Also, the T/C runs as follows: (dose: 5.0 mg/kg/injection, schedule: Q01DX009 (ip), vehicle: distilled water + Tween-80) 177 % of control; (dose: 6.25 mg/kg/injection, schedule: Q04DX002 (ip), vehicle: other) 120 % of control; (dose: 10.0 mg/kg/injection, schedule: Q01DX001 (iv), vehicle: saline) 108 % of control; (dose: 10.0 mg/kg/injection, schedule: Q01DX005 (ip), vehicle: saline) 276 % of control; (dose: 10.0 mg/kg/injection, schedule: Q01DX005 (iv), vehicle: saline) 151 % of control; (dose: 10.0 mg/kg/injection, schedule: Q01DX009 (ip), vehicle: acid diluted with saline) 436 % of control. Moreover, the T/C was 247 % of control (dose: 10.0 mg/kg/injection, schedule: Q01DX009 (ip), vehicle: distilled water + Tween-80); 185 % of control (dose: 10.0 mg/kg/injection, schedule: Q04DX003 (ip), vehicle: saline); 116 % of control (dose: 10.0 mg/kg/injection, schedule: Q04DX003 (iv), vehicle: saline); 259 % of control (dose: 19.4 mg/kg/injection, schedule: Q04DX003 (ip), vehicle: saline); 190 % of control (dose: 20.0 mg/kg/injection, schedule: Q01DX001 (ip), vehicle: saline); 116 % of control (dose: 20.0 mg/kg/injection, schedule: Q01DX001 (iv), vehicle: saline). In addition, the T/C was 312 % of control (dose: 20.0 mg/kg/injection, schedule: Q01DX005 (ip), vehicle: saline); 177 % of control (dose: 20.0 mg/kg/injection, schedule: Q01DX005 (iv), vehicle: saline); 158 % of control (dose: 20.0 mg/kg/injection, schedule: Q01DX009 (ip), vehicle: acid diluted with saline); 211 % of control (dose: 20.0 mg/kg/injection, schedule: Q01DX009 (ip), vehicle: distilled water + Tween-80); 214 % of control (dose: 20.0 mg/kg/injection, schedule: Q04DX003 (ip), vehicle: saline); 116 % of control (dose: 25.0 mg/kg/injection, schedule: Q04DX002 (ip), vehicle: other). Further, the T/C reads like this: (dose: 25.0 mg/kg/injection, schedule: Q04DX002 (ip), vehicle: water) 198 % of control; (dose: 32.4 mg/kg/injection, schedule: Q04DX003 (ip), vehicle: saline) 211 % of control; (dose: 40.0 mg/kg/injection, schedule: Q01DX001 (ip), vehicle: saline) 205 % of control; (dose: 40.0 mg/kg/injection, schedule: Q01DX009 (ip), vehicle: acid diluted with saline) 150 % of control and 163 % of control; (dose: 40.0 mg/kg/injection, schedule: Q04DX003 (ip), vehicle: saline) 223 % of control; (dose: 50.0 mg/kg/injection, schedule: Q04DX002 (ip), vehicle: other) 103 % of control. Also, the T/C (dose: 50.0 mg/kg/injection, schedule: Q04DX002 (ip), vehicle: water) is 261 % of control; the T/C (dose: 80.0 mg/kg/injection, schedule: Q01DX001 (ip), vehicle: saline) was 178 % of control; the T/C (dose: 100.0 mg/kg/injection, schedule: Q04DX002 (ip), vehicle: water) was 157 % of control and 161 % of control; the T/C (dose: 200.0 mg/kg/injection, schedule: Q04DX002 (ip), vehicle: water) was 188 % of control.

Consider `CCn1c2ccccc2n2c(=O)cc(-c3ccccc3)c(C#N)c12`, for which the T/C is 98 % of control under setting [1], 106 % of control under setting [2] and 97 % of control under setting [3].

In the case of `CSC(/C=C/c1ccccc1)=Nc1ccccc1`, the T/C is, setting by setting: (dose: 100.0 mg/kg/injection, schedule: Q01DX001 (ip), vehicle: saline with Tween-80) 99 % of control; (dose: 200.0 mg/kg/injection, schedule: Q01DX001 (ip), vehicle: saline with Tween-80) 99 % of control; (dose: 400.0 mg/kg/injection, schedule: Q01DX001 (ip), vehicle: saline with Tween-80) 101 % of control.

Take `CN(CC(=O)N1CCOCC1)Cc1c(Cl)cccc1NC(=O)c1ccccc1`: the T/C is 100 % of control (dose: 50.0 mg/kg/injection, schedule: Q01DX009 (ip), vehicle: saline); 103 % of control (dose: 100.0 mg/kg/injection, schedule: Q01DX009 (ip), vehicle: saline); 105 % of control (dose: 200.0 mg/kg/injection, schedule: Q01DX009 (ip), vehicle: saline).

In the case of `O=C1CCC(C(=O)O)N1` (configuration not stated), the T/C reads like this: (dose: 100.0 mg/kg/injection, schedule: Q04DX003 (ip), vehicle: saline) 95 % of control; (dose: 200.0 mg/kg/injection, schedule: Q04DX003 (ip), vehicle: saline) 97 % of control; (dose: 400.0 mg/kg/injection, schedule: Q04DX003 (ip), vehicle: saline) 94 % of control.

Take `S=c1ssc2ccccc12`: the T/C (dose: 100.0 mg/kg/injection, schedule: Q04DX003 (ip), vehicle: saline with Tween-80) is 100 % of control; the T/C (dose: 200.0 mg/kg/injection, schedule: Q04DX003 (ip), vehicle: saline with Tween-80) is 109 % of control; the T/C (dose: 400.0 mg/kg/injection, schedule: Q04DX003 (ip), vehicle: saline with Tween-80) is 109 % of control.

With `CC1=NC(C#N)=C(C#N)N=C(C)C1`, the T/C is, setting by setting: under setting [4], 93 % of control; under setting [5], 94 % of control; (dose: 50.0 mg/kg/injection, schedule: Q01DX009 (ip), vehicle: Klucel (hydroxypropylcellulose) (HPC)) 93 % of control.

On to `CCCCN(CCCC)CC(O)c1ccc(OC)c2ccccc12` (configuration not stated), for which the T/C under setting [6] is 102 % of control, the T/C under setting [7] is 107 % of control and the T/C under setting [8] was 98 % of control.

`CC(=O)c1c(-c2ccc(F)cc2)c(-c2ccc(F)cc2)n[nH]c1=O`: the T/C under setting [6] was 100 % of control, the T/C under setting [7] was 100 % of control and the T/C under setting [8] is 97 % of control.

In the case of `CN1CCC/C1=C1/CCc2ccccc2C1=O`, the T/C under setting [9] is 103 % of control; the T/C (dose: 100.0 mg/kg/injection, schedule: Q01DX005 (ip), vehicle: Klucel (hydroxypropylcellulose) (HPC)) was 108 % of control; the T/C (dose: 200.0 mg/kg/injection, schedule: Q01DX005 (ip), vehicle: Klucel (hydroxypropylcellulose) (HPC)) is 107 % of control.

With `Cc1csc2nc(-c3ccccc3)c(/C=N/NC(=O)CN(C)C)n12`, the T/C by setting is: under setting [1], 110 % of control; under setting [2], 103 % of control; under setting [3], 99 % of control.

Take `C=C1Sc2ccccc2N1C`: the T/C (dose: 6.25 mg/kg/injection, schedule: Q01DX009 (ip), vehicle: Klucel (hydroxypropylcellulose) (HPC)) is 111 % of control; the T/C under setting [4] was 107 % of control and 114 % of control; the T/C under setting [5] is 123 % of control.

For `O=c1c2ccccc2nc(/C=N/NC(=S)Nc2ccc(Cl)cc2)n1-c1ccc(Br)cc1`, the T/C reads like this: (dose: 100.0 mg/kg/injection, schedule: Q04DX002 (ip), vehicle: saline with Tween-80) 96 % of control; (dose: 200.0 mg/kg/injection, schedule: Q04DX002 (ip), vehicle: saline with Tween-80) 88 % of control.

Take `O=C(N/C=C/c1ccco1)NC1CCCCCCCCCCC1`: the T/C (dose: 12.5 mg/kg/injection, schedule: Q01DX005 (ip), vehicle: Klucel (hydroxypropylcellulose) (HPC)) was 95 % of control; the T/C (dose: 25.0 mg/kg/injection, schedule: Q01DX005 (ip), vehicle: Klucel (hydroxypropylcellulose) (HPC)) was 92 % of control; the T/C under setting [9] was 89 % of control.
